A word on the EC50: it is the concentration that produces a half-maximal response.

We go through 19 compounds from patent US12590062B2, “PD-1/PD-L1 inhibitors” (Gilead Sciences, Inc., priority 2017, dated 2026).

The target of the experiment is T1, PD-1/PD-L1 interaction (Homo sapiens, UniProt Q9NZQ7).
T1 construct: expressed in transfected cells; host or cells: CHO cells (aAPC-PD-L1) co-cultured with Jurkat cells overexpressing PD-1 and an NFAT-luciferase reporter
T1 sequence (Q9NZQ7 19-290): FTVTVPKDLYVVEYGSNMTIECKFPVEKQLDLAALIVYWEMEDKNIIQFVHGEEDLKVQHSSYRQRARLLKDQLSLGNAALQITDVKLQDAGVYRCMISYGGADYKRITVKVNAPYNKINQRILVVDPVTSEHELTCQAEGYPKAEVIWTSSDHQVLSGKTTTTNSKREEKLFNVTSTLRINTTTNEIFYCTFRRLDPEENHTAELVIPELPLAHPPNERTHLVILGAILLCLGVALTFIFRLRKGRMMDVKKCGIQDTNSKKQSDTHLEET
Put plainly: PD-1/PD-L1 NFAT reporter co-culture assay. The class given is cell-based. As to conditions: Jurkat PD-1 NFAT-luciferase cells co-cultured with aAPC-PD-L1 CHO cells, 6 hrs at 37° C.; read-out: EC50 NFAT Luciferase. The essentials:
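Jurkat cells overexpressing PD-1 with NFAT-luciferase mixed with compounds and plated onto CHO aAPCs expressing anti-CD3 and PD-L1, RPMI with 2% FBS. Co-culture 6 h at 37 °C; luminescence read with ONE-Glo. EC50 from four-parameter fit.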
As to `Cc1c(COc2nc(OCc3ccc(F)c(C#N)c3)c(CNC[C@@H](O)CC(=O)O)cc2Br)cccc1-c1cccc(COc2nc(OCc3ccc(F)c(C#N)c3)c(CNC[C@@H](O)CC(=O)O)cc2Br)c1C` [Example 140, (3S,3′S)-4,4′-((((((2,2′-dimethyl-[1,1′-biphenyl]-3,3′-diyl)bis(methylene))bis(oxy))bis(5-bromo-2-((3-cyano-4-fluorobenzyl)oxy)pyridine-6,3-diyl))bis(methylene))bis(azanediyl))bis(3-hydroxybutanoic acid)], the EC50 is 239 nM.

For `Cc1c(COc2nc(OCCc3cc[nH]n3)c(CNC[C@@H](O)CC(=O)O)cc2Br)cccc1-c1cccc(COc2nc(OCCc3cc[nH]n3)c(CNC[C@@H](O)CC(=O)O)cc2Br)c1C` [Example 142, (3S,3′S)-4,4′-((((((2,2′-dimethyl-[1,1′-biphenyl]-3,3′-diyl)bis(methylene))bis(oxy))bis(2-(2-(1H-pyrazol-3-yl)ethoxy)-5-bromopyridine-6,3-diyl))bis(methylene))bis(azanediyl))bis(3-hydroxybutanoic acid)], the EC50 was 235 nM.

For the compound `Cc1c(COc2nc(OCc3cccc(C#N)n3)c(CNC[C@@H](O)CC(=O)O)cc2Br)cccc1-c1cccc(COc2nc(OCc3cccc(C#N)n3)c(CNC[C@@H](O)CC(=O)O)cc2Br)c1C` [Example 152, (3S,3′S)-4,4′-((((((2,2′-dimethyl-[1,1′-biphenyl]-3,3′-diyl)bis(methylene))bis(oxy))bis(5-bromo-2-((6-cyanopyridin-2-yl)methoxy)pyridine-6,3-diyl))bis(methylene))bis(azanediyl))bis(3-hydroxybutanoic acid)], the EC50 worked out at 594 nM.

Regarding `Cc1c(COc2nc(OCc3cccc(C#N)c3)c(CNC[C@@H](O)CC(=O)O)cc2Cl)cccc1-c1cccc(COc2nc(OCc3cccc(C#N)c3)c(CNC[C@@H](O)CC(=O)O)cc2Cl)c1C` [Example 153, (3S,3′S)-4,4′-((((((2,2′-dimethyl-[1,1′-biphenyl]-3,3′-diyl)bis(methylene))bis(oxy))bis(5-chloro-2-((3-cyanobenzyl)oxy)pyridine-6,3-diyl))bis(methylene))bis(azanediyl))bis(3-hydroxybutanoic acid)], the EC50 came to 329 nM.

`COc1nc(OCc2cccc(-c3cccc(COc4nc(OC)c(CNCC(=O)NS(C)(=O)=O)cc4Cl)c3C)c2C)c(Cl)cc1CNCC(=O)NS(C)(=O)=O` [Example 168, 2,2′-((((((2,2′-Dimethyl-[1,1′-biphenyl]-3,3′-diyl)bis(methylene))bis(oxy))bis(5-chloro-2-methoxypyridine-6,3-diyl))bis(methylene))bis(azanediyl))bis(N-(methylsulfonyl)acetamide)]: the EC50 is 308 nM.

Turning to `COc1nc(OCc2cccc(-c3cccc(COc4nc(OC)c(CNCc5nnn[nH]5)cc4Cl)c3C)c2C)c(Cl)cc1CNCc1nnn[nH]1` [Example 169, 1,1′-((((2,2′-dimethyl-[1,1′-biphenyl]-3,3′-diyl)bis(methylene))bis(oxy))bis(5-chloro-2-methoxypyridine-6,3-diyl))bis(N-((1H-tetrazol-5-yl)methyl)methanamine)], the half-maximal effective concentration (EC50) was 225 nM.

`COc1nc(OCc2cccc(-c3cccc(COc4nc(OC)c(CNCc5nnc(C)o5)cc4Cl)c3C)c2C)c(Cl)cc1CNCc1nnc(C)o1` [Example 170, 1,1′-((((2,2′-dimethyl-[1,1′-biphenyl]-3,3′-diyl)bis(methylene))bis(oxy))bis(5-chloro-2-methoxypyridine-6,3-diyl))bis(N-((5-methyl-1,3,4-oxadiazol-2-yl)methyl)methanamine)]: the EC50 is no less than 50000 nM.

For the compound `COc1nc(OCc2cccc(-c3cccc(COc4nc(OC)c(CNCc5c[nH]nn5)cc4Cl)c3C)c2C)c(Cl)cc1CNCc1c[nH]nn1` [Example 171, 1,1′-((((2,2′-dimethyl-[1,1′-biphenyl]-3,3′-diyl)bis(methylene))bis(oxy))bis(5-chloro-2-methoxypyridine-6,3-diyl))bis(N-((1H-1,2,3-triazol-4-yl)methyl)methanamine)], the EC50 amounted to 7720 nM.

Turning to `COc1nc(OCc2cccc(-c3cccc(COc4nc(OC)c(CN[C@@H]5CONC5=O)cc4Cl)c3C)c2C)c(Cl)cc1CN[C@@H]1CONC1=O` [Example 173, (4R,4′R)-4,4′-((((((2,2′-dimethyl-[1,1′-biphenyl]-3,3′-diyl)bis(methylene))bis(oxy))bis(5-chloro-2-methoxypyridine-6,3-diyl))bis(methylene))bis(azanediyl))bis(isoxazolidin-3-one)], the EC50 is no less than 50000 nM.

Regarding `COc1nc(OCc2cccc(-c3cccc(COc4nc(OC)c(CNCC(=O)NS(=O)(=O)N(C)C)cc4Cl)c3C)c2C)c(Cl)cc1CNCC(=O)NS(=O)(=O)N(C)C` [Example 174, 2,2′-((((((2,2′-dimethyl-[1,1′-biphenyl]-3,3′-diyl)bis(methylene))bis(oxy))bis(5-chloro-2-methoxypyridine-6,3-diyl))bis(methylene))bis(azanediyl))bis(N-(N,N-dimethylsulfamoyl)acetamide)], the EC50 was no less than 50000 nM.

As to `COc1nc(OCc2cccc(-c3cccc(COc4nc(OC)c(CNCC5(O)CC5)cc4Cl)c3C)c2C)c(Cl)cc1CNCC1(O)CC1` [Example 175, 1,1′-(((((((2,2′-dimethyl-[1,1′-biphenyl]-3,3′-diyl)bis(methylene))bis(oxy))bis(5-chloro-2-methoxypyridine-6,3-diyl))bis(methylene))bis(azanediyl))bis(methylene))bis(cyclopropan-1-ol)], the EC50 came to 808 nM.

Turning to `COc1nc(OCc2cccc(-c3cccc(COc4nc(OC)c(CNCC(O)C(F)F)cc4Cl)c3C)c2C)c(Cl)cc1CNCC(O)C(F)F` (stereo not shown) [Example 176, 3,3′-((((((2,2′-dimethyl-[1,1′-biphenyl]-3,3′-diyl)bis(methylene))bis(oxy))bis(5-chloro-2-methoxypyridine-6,3-diyl))bis(methylene))bis(azanediyl))bis(1,1-difluoropropan-2-ol)], the EC50 was 2880 nM.

Consider `COc1nc(OCc2cccc(-c3cccc(COc4nc(OC)c(CN[C@H]5CCC[C@@H](C(=O)O)C5)cc4Cl)c3C)c2C)c(Cl)cc1CN[C@H]1CCC[C@@H](C(=O)O)C1` [Example 184, (1R,1′R,3S,3′S)-3,3′-((((((2,2′-dimethyl-[1,1′-biphenyl]-3,3′-diyl)bis(methylene))bis(oxy))bis(5-chloro-2-methoxypyridine-6,3-diyl))bis(methylene))bis(azanediyl))bis(cyclohexane-1-carboxylic acid)], for which the EC50 amounted to 1390 nM.

On to `COc1nc(OCc2cccc(-c3cccc(COc4nc(OC)c(CNC[C@@H](O)CC(=O)O)cc4Br)c3Cl)c2Cl)c(Br)cc1CNC[C@@H](O)CC(=O)O` [Example 189, (3S,3′S)-4,4′-((((((2,2′-Dichloro-[1,1′-biphenyl]-3,3′-diyl)bis(methylene))bis(oxy))bis(5-bromo-2-methoxypyridine-6,3-diyl))bis(methylene))bis(azanediyl))bis(3-hydroxybutanoic acid)], for which the EC50 worked out at 106 nM.

Consider `COc1nc(OCc2cccc(-c3cccc(COc4nc(OC)c(CNC[C@@H](O)CC(=O)O)cc4Br)c3Cl)c2Cl)ccc1CNC[C@@H](O)CC(=O)O` [Example 190, (S)-4-(((6-((3′-(((3-Bromo-5-((((S)-3-carboxy-2-hydroxypropyl)amino)methyl)-6-methoxypyridin-2-yl)oxy)methyl)-2,2′-dichloro-[1,1′-biphenyl]-3-yl)methoxy)-2-methoxypyridin-3-yl)methyl)amino)-3-hydroxybutanoic acid], for which the EC50 was determined as 516 nM.

Regarding `N#Cc1cncc(COc2nc(OCc3cccc(-c4cccc(COc5nc(OCc6cncc(C#N)c6)c(CNC[C@@H](O)CC(=O)O)cc5Br)c4Cl)c3Cl)ccc2CNC[C@@H](O)CC(=O)O)c1` [Example 194, (S)-4-(((6-((3′-(((3-Bromo-5-((((S)-3-carboxy-2-hydroxypropyl)amino)methyl)-6-((5-cyanopyridin-3-yl)methoxy)pyridin-2-yl)oxy)methyl)-2,2′-dichloro-[1,1′-biphenyl]-3-yl)methoxy)-2-((5-cyanopyridin-3-yl)methoxy)pyridin-3-yl)methyl)amino)-3-hydroxybutanoic acid], the EC50 turned out to be 1260 nM.

`N#Cc1cncc(COc2nc(OCc3cccc(-c4cccc(COc5ccc(CNC[C@@H](O)CC(=O)O)c(OCc6cncc(C#N)c6)n5)c4Cl)c3Cl)ccc2CNC[C@@H](O)CC(=O)O)c1` [Example 195, (3S,3′S)-4,4′-((((((2,2′-Dichloro-[1,1′-biphenyl]-3,3′-diyl)bis(methylene))bis(oxy))bis(2-((5-cyanopyridin-3-yl)methoxy)pyridine-6,3-diyl))bis(methylene))bis(azanediyl))bis(3-hydroxybutanoic acid)]: the EC50 was found to be 408 nM.

`C[C@@](CO)(NCc1cc(Br)c(OCc2cccc(-c3cccc(COc4nc(OCc5cncc(C#N)c5)c(CN[C@@](C)(CO)C(=O)O)cc4Br)c3Cl)c2Cl)nc1OCc1cncc(C#N)c1)C(=O)O` [Example 197, (2S,2′S)-2,2′-((((((2,2′-Dichloro-[1,1′-biphenyl]-3,3′-diyl)bis(methylene))bis(oxy))bis(5-bromo-2-((5-cyanopyridin-3-yl)methoxy)pyridine-6,3-diyl))bis(methylene))bis(azanediyl))bis(3-hydroxy-2-methylpropanoic acid)]: the EC50 amounted to 98 nM.

`Cc1c(COc2cc(OCc3cncc(C#N)c3)c(CNCC(C)(O)CC(=O)O)cc2Cl)cccc1-c1cccc(COc2cc(OCc3cncc(C#N)c3)c(CNCC(C)(O)CC(=O)O)cc2Cl)c1C` (stereo not shown) [Example 218, 4,4′-((((((2,2′-dimethyl-[1,1′-biphenyl]-3,3′-diyl)bis(methylene))bis(oxy))bis(5-chloro-2-((5-cyanopyridin-3-yl)methoxy)-4,1-phenylene))bis(methylene))bis(azanediyl))bis(3-hydroxy-3-methylbutanoic acid)]: the EC50 came out at 680 nM.
